Patent publication US20240391940A1, “FUSED RING-CONTAINING COMPOUND, APPLICATION THEREOF, AND COMPOSITION CONTAINING SAME” (GenEros Biopharma Ltd., priority 2020, published 2024)
Where “and” joins values, the source holds several entries; their conditions need not be identical. Equal values may be shown once. Read-outs that look alike come from different tables or passages of the source.

Assays:
[1] = test system: adjuvant arthritis (AIA) rat model; test: Rat AIA (adjuvant arthritis) model; format: in vivo, Lewis rats; details: AIA rats, 10 mg/kg daily from day 9, individual animals, 10 mg/kg; for Hind paw volume: in mL (unit assumed)
[2] = test system: collagen-induced arthritis (CIA) mouse model; details: CIA mice; for clinical score: Tofacitinib 10 mg/kg p.o. BID from day 28; for clinical score / body weight: Mean ± SEM; for body weight: Tofacitinib 10 mg/kg
[3] = test system: collagen-induced arthritis (CIA) mouse model; test: Mouse CIA model, repeated for dose exploration (10, 30, 50 mg/kg); details: for Significance of clinical score vs. Vehicle group (Two-way ANOVA): Tofacitinib BID; for Changes in body weight, Mean ± SEM / Clinical scores, Mean ± SEM / Clinical scores: significance vs. solvent control group, two-way ANOVA: G2 Tofacitinib 10 mg/kg
Excerpt: Testing was repeated for dose exploration
The above method was used.

C[C@@H]1CCN(C(=O)CC#N)C[C@@H]1N(C)c1ncnc2[nH]ccc12 [Tofacitinib, reference compound]
body weight ([1]; day 9): 167 g (2×) and 156 g and 146 g and 168 g and 151 g and 154 g and 161 g | clinical scores ([1]; day 9): 1 and 0 (7×) | Hind paw volume ([1]; day 9): 2.1 and 1.42 and 1.4 and 1.35 and 1.24 and 1.1 | body weight ([1]; day 10): 165 g and 153 g and 142 g and 168 g and 150 g and 152 g and 160 g and 166 g | body weight ([1]; day 11): 162 g and 154 g and 140 g and 166 g and 145 g and 151 g and 158 g and 167 g | clinical scores ([1]; day 11): 1.5 and 0.5 (4×) and 0 (2×) and 0.25 | Hind paw volume ([1]; day 11): 2 and 1.23 and 1.03 and 1.53 and 1.02 and 1.46 and 1.01 | body weight ([1]; day 12): 155 g (2×) and 149 g (2×) and 136 g and 159 g and 145 g and 168 g | body weight ([1]; day 13): 154 g (2×) and 148 g and 136 g and 157 g and 140 g and 167 g and 150 g | clinical scores ([1]; day 13): 3.3 and 1 (3×) and 1.5 and 0.5 and 1.2 and 0.7 | Hind paw volume ([1]; day 13): 2.59 and 1.92 and 1.72 and 1.16 and 1.39 and 1.11 and 1.83 and 1.47 | body weight ([1]; day 14): 151 g and 144 g and 135 g and 154 g and 140 g and 147 g and 153 g and 164 g | body weight ([1]; day 15): 150 g and 145 g and 134 g and 152 g and 139 g and 146 g and 151 g and 162 g | clinical scores ([1]; day 15): 3.5 and 3 and 2 (2×) and 1.5 and 2.5 and 0.8 and 0.7 | Hind paw volume ([1]; day 15): 2.54 and 2.22 and 1.31 and 1.33 and 1.65 and 2.45 and 1.18 | body weight ([1]; day 16): 153 g and 142 g and 136 g and 152 g and 141 g and 145 g and 147 g and 160 g | body weight ([1]; day 17): 156 g and 147 g and 138 g and 151 g and 142 g and 146 g (2×) and 163 g | clinical scores ([1]; day 17): 3 and 2 (2×) and 1.8 and 1.5 and 2.3 and 1.3 and 0.3 | Hind paw volume ([1]; day 17): 2.5 and 2.45 and 2.08 and 1.17 and 2.21 and 1.73 and 2.16 and 0.94 | body weight ([1]; day 18): 155 g and 148 g (3×) and 141 g and 151 g and 143 g and 164 g | body weight ([1]; day 19): 160 g and 151 g and 144 g and 159 g and 145 g and 153 g and 154 g and 166 g | clinical scores ([1]; day 19): 2.8 and 2 and 1.3 (2×) and 0.3 and 1.5 and 1 and 0 | Hind paw volume ([1]; day 19): 2.81 and 2.85 and 1.96 and 1.46 and 2.31 and 1.83 and 1.42 | body weight ([1]; day 20): 159 g and 150 g and 136 g and 160 g and 145 g and 152 g and 153 g and 165 g | body weight ([1]; day 21): 161 g and 150 g and 148 g and 162 g | clinical scores ([1]; day 21): 2 and 1.5 (2×) and 1.3 (2×) and 0 (2×) and 1 | Hind paw volume ([1]; day 21): 2.49 and 2.2 and 2.17 and 1.18 and 1.96 and 1.22 | clinical scores ([1]; day 23): 3 and 1 (4×) and 6 and 0.5 and 0 | Hind paw volume ([1]; day 23): 2.74 and 1.9 and 1.91 and 1.23 and 1.17 and 1.64 and 1.92 and 1.18 | clinical score ([2]; day 21): 0.0 ± 0.00 | clinical score ([2]; day 25): 0.3 ± 0.16 | clinical score ([2]; day 28): 0.8 ± 0.31 | clinical score ([2]; day 29): 1.0 ± 0.42 | clinical score ([2]; day 32): 1.8 ± 0.49 | clinical score ([2]; day 34): 2.5 ± 0.65 | clinical score ([2]; day 36): 2.8 ± 0.75 | clinical score ([2]; day 39): 3.4 ± 0.80 | clinical score ([2]; day 41): 3.5 ± 0.87 | body weight ([2]; day 21): 20.39 ± 0.43 | body weight ([2]; day 25): 20.54 ± 0.45 | body weight ([2]; day 28): 20.63 ± 0.49 | body weight ([2]; day 29): 20.2 ± 0.44 | body weight ([2]; day 32): 19.91 ± 0.50 | body weight ([2]; day 34): 20.39 ± 0.44 | body weight ([2]; day 36): 20.26 ± 0.43 | body weight ([2]; day 39): 20.31 ± 0.34 | body weight ([2]; day 41): 21.04 ± 0.44 | Effect on symptoms of arthritis and lesions in tissues ([2]; positive control tofacitinib): significant improving effect on the symptoms of arthritis and lesions in tissues | Joint histopathology (H&E staining) ([2]; tofacitinib 10 mg/kg): no significant lesions in joint tissues | Day on which significant inhibition of the score of arthritis began ([2]; tofacitinib 10 mg/kg BID): 34 days | Significance of clinical score vs. Vehicle group (Two-way ANOVA) ([3]; CIA mice, Day 35): ** (**P < 0.01) | Significance of clinical score vs. Vehicle group (Two-way ANOVA) ([3]; CIA mice, Day 38): *** (***P < 0.001) | Significance of clinical score vs. Vehicle group (Two-way ANOVA) ([3]; CIA mice, Day 40): **** (****P < 0.0001) | Significance of clinical score vs. Vehicle group (Two-way ANOVA) ([3]; CIA mice, Day 42): **** (****P < 0.0001) | Effect on symptoms of arthritis and lesions in tissues ([3]; CIA mice, positive control tofacitinib): significant improving effect on the symptoms of arthritis and lesions in tissues | Changes in body weight, Mean ± SEM ([3]; Day 21): 20.41 ± 0.27 | Clinical scores, Mean ± SEM ([3]; Day 21): 0.0 ± 0.00 | Changes in body weight, Mean ± SEM ([3]; Day 24): 19.69 ± 0.37 | Clinical scores, Mean ± SEM ([3]; Day 24): 0.0 ± 0.00 | Changes in body weight, Mean ± SEM ([3]; Day 26): 19.59 ± 0.36 | Clinical scores, Mean ± SEM ([3]; Day 26): 0.3 ± 0.16 | Changes in body weight, Mean ± SEM ([3]; Day 28): 19.25 ± 0.50 | Clinical scores, Mean ± SEM ([3]; Day 28): 0.6 ± 0.18 | Changes in body weight, Mean ± SEM ([3]; Day 31): 18.98 ± 0.53 | Clinical scores, Mean ± SEM ([3]; Day 31): 1.8 ± 0.37 | Changes in body weight, Mean ± SEM ([3]; Day 33): 19.14 ± 0.43 | Clinical scores, Mean ± SEM ([3]; Day 33): 3.1 ± 0.52 | Changes in body weight, Mean ± SEM ([3]; Day 35): 19.03 ± 0.46 | Clinical scores, Mean ± SEM ([3]; Day 35): 3.6 ± 0.56 | Clinical scores: significance vs. solvent control group, two-way ANOVA ([3]; Day 35): ** (** p < 0.01) | Changes in body weight, Mean ± SEM ([3]; Day 38): 18.98 ± 0.45 | Clinical scores, Mean ± SEM ([3]; Day 38): 4.6 ± 0.75 | Clinical scores: significance vs. solvent control group, two-way ANOVA ([3]; Day 38): *** (*** p < 0.001) | Changes in body weight, Mean ± SEM ([3]; Day 40): 19.56 ± 0.32 | Clinical scores, Mean ± SEM ([3]; Day 40): 5.1 ± 0.90 | Clinical scores: significance vs. solvent control group, two-way ANOVA ([3]; Day 40): **** (**** p <0.0001) | Changes in body weight, Mean ± SEM ([3]; Day 42): 19.69 ± 0.40 | Clinical scores, Mean ± SEM ([3]; Day 42): 5.5 ± 0.87 | Clinical scores: significance vs. solvent control group, two-way ANOVA ([3]; Day 42): **** (**** p <0.0001)
